Experimental data as given in patent US20070154449A1, “TIGHT JUNCTION MODULATING PEPTIDES FOR ENHANCED MUCOSAL DELIVERY OF THERAPEUTIC COMPOUNDS” (Nastech Pharmaceutical Company Inc., priority 2005, published 2007).

What was measured:
Format in all cases: cell-based
[1] = system: human-derived tracheal/bronchial epithelial cells (EpiAirway™ Tissue model system); experiment: Cytotoxicity (LDH assay), EpiAirway tissue model; settings: 1 h incubation, % of 1% Triton X-100 control
Experimental: The amount of cell death was assayed by measuring the release of lactate dehydrogenase (LDH) from the cells into the apical medium using a CytoTox 96 Cytotoxicity Assay Kit (Promega Corp., Madison, Wis.). One percent Octylphenolpoly (ethyleneglycolether)×(Triton X-100™) diluted in phosphate buffered saline (PBS) causes 100% lysis in cultured cells and served herein as a positive control for the LDH assay. Following the one hour incubation period with a test formulation (refer to Table 4 in Example 2 for details of test formulations), the total liquid volume of each insert was brought to a final volume of 200 μl with culture medium. The apical medium was then mixed by pipetting four times with a multichannel pipette set to a 100 μl volume. After mixing, a 100 μl sample from the apical side of each insert was transferred to a new 96-well plate. The apical media samples were sealed with a plate sealer and stored at room temperature for same day analysis or stored overnight at 4° C. for analysis the next day. To measure LDH levels, 5 μl of the 100 μl apical media sample was diluted in 45 μl DPBS in a new 96-well plate. Fresh, cell-free culture medium will be used as a blank. Fifty microliters of substrate solution was added to each well and incubated for 30 minutes at room temperature away from direct light. Following the 30 minute incubation, 50 μl of stop solution was added to each well. Optical density (OD) was measured at 490 nm with a uQuant absorbance plate reader from Biotek Instruments. The measurement of LDH release into the apical media indicates relative cytotoxicity of the samples. Percent cytotoxicity for each test formulation was calculated by subtracting the measured absorbance of the PBS control (basal level of LDH release) from the measured absorbance of the individual test formulation and then dividing that value by the measured absorbance for the 1% Triton X-100™ positive control, multiplied by 100.
The formula used to calculate percent cytotoxicity is as follows: [formula] Osmolality
(§1) Of the total 300 μl volume for each test formulation, only a 20 μl sample was applied to the human-derived tracheal/bronchial epithelial cells (EpiAirway™ Tissue model system) in order to assess the effect each test formulation had on TER, LDH and sample permeation.

[2] = system: human-derived tracheal/bronchial epithelial cells (EpiAirway™ Tissue model system); experiment: FITC-Dextran (FD3) permeation assay, EpiAirway tissue model; settings: for % FD3 Permeation: 1 h at 37° C.
Experimental: A FITC labeled dextran with a molecular weight 3000 (FD3) was used to assess the efficacy of individual TJMP on epithelial cell monolayer permeation. The tissue insert plates were transferred to a 96-well receiver plate containing 200 μl of DPBS++ as basal media. The apical surface of each tissue culture insert was incubated with a 20 μl sample of a single test formulation (refer to Table 4 in Example 2 for details of test formulations) for one hour at 37° C. in the dark on a shaker (˜100 rpm). Following the 1 hour incubation period, underlying basal media samples were taken from each tissue culture insert and temporarily stored in the dark at room temperature until FD3 levels were quantified by fluorescence spectroscopy. For FD3 measurements, a 150 μl of basal media sample was transferred to a black, clear bottom 96-well plate. Fluorescence emission at 528/20 following excitation at 485/20 were measured using a FLx800 fluorescence plate reader from Biotek Instruments.
Permeation was calculated as: [formula] [formula] Formula terms for permeation defined: […]
as §1

[3] = system: human-derived tracheal/bronchial epithelial cells (EpiAirway™ Tissue model system); experiment: Transepithelial electrical resistance (TER), EpiAirway tissue model; settings: pH 7, 20 μl applied
Experimental: EpiAirway™ culture membranes were received the day before the experiments started. They are shipped in phenol red-free and hydrocortisone-free Dulbecco's Modified Eagle's Medium (DMEM). The cells are ciliated and psudostratefied, grown to confluency on Millipore Multiscreen Caco-2 96-well assay system comprised of a polycarbonate filter system. Upon receipt, the insert system will be stored unopened at 4° C. and/or cultured in 250 μl basal media per well (phenol red-free and hydrocortisone-free Dulbecco's Modified Eagle's Medium (DMEM)) at 37° C./5% CO2 for 24 hours before use.
TER measurements were taken using the REMS Autosampler (World Precision Instruments, Sarasota, Fla.) with the electrode leads. The electrodes and a tissue culture blank insert will be equilibrated for at least 20 minutes in MatTek Air-100™ medium with the power off prior to checking calibration. The background resistance of the insert system has been established by multiple measurements of a blank insert plate and the same value was used for each test on the platform. Time zero TER (TER0) was measured before incubation of the inserts with the test formulation. The top electrode will be as adjusted so that it is close to, but not making contact with, the top surface of the insert membrane. Background resistance of the blank insert should be about 5-20 ohms. For each TER determination, 100 μl of MatTek Air-100™ medium was added to the insert and 250 μl in the basal well followed by placement in the Endohm chamber. All TER values are reported as a function of the surface area of the tissue. Resistance was expressed as both Ohms*cm^2 and percent original TER value.
TER values were calculated as: [formula] [formula] Formula terms for TER calculation defined: […]
A decrease in TER value relative to the control value indicates a decrease in cell membrane resistance and an increase in mucosal epithelial cell permeability.
as §1

## CNGRCGGKKKLKLLLKLL [PN679]
[1]; 25 μM peptide
  LDH: 1%
[1]; 100 μM peptide
  LDH: 23%
[1]; 250 μM peptide
  LDH: 38%
[1]; 500 μM peptide
  LDH: 50%
[1]; 1000 μM peptide
  LDH: 51%
[2]; 25 μM peptide
  % FD3 Permeation: 0%
[2]; 100 μM peptide
  % FD3 Permeation: 7%
[2]; 250 μM peptide
  % FD3 Permeation: 8%
[2]; 500 μM peptide
  % FD3 Permeation: 10%
[2]; 1000 μM peptide
  % FD3 Permeation: 10%
[2]; based on observed TER reduction, sample permeation and cytotoxicity (LDH release)
  optimal concentration: 100 µM
[3]; 25 μM peptide
  % T0 TER: 70%
[3]; 100 μM peptide
  % T0 TER: 7%
[3]; 250 μM peptide
  % T0 TER: 2%
[3]; 500 μM peptide
  % T0 TER: −2%
[3]; 1000 μM peptide
  % T0 TER: −2%
